Data set [1] is described as follows: MTT cytotoxicity assay, 1321N1 astrocytoma cells. The data set is classed as cell-based. To be noted: human. On the procedure:
Potential cytotoxicity of 24 and its similarly potent analogs 27 and 30 was assessed in 3-(4,5-dimethylthiazol-2-yl)-2,5-diphenyl-2H-tetrazolium bromide (MTT) assays performed on human 1321N1 astrocytoma cells (Supplementary Table S3). This cell line was chosen since it is well-established for the screening of cytotoxic drugs, making it a reliable choice for assessing cytotoxicity.[46]
For the experiment, 1321N1 astrocytoma cells were seeded at a density of 1 × 10^5 cells/well in 180 µL of cell medium into transparent 96-well plates, whereby the outer wells only contained buffer (to avoid an edge effect). Cells were incubated for 24 h at 37°C, 5% CO2. Compound dilutions were prepared in DMSO. […] Subsequently, 20 µL of these compound dilutions were added to each well so that astrocytoma cells were incubated with varying concentrations of MRGPRX2 antagonists (0.01 µM–10 µM) at 37° C, 5% CO2. 5-Fluoruracil, a cytostatic drug, served as a positive control. Medium-containing DMSO in the absence of a compound served as a negative control. After 71 h, […] of MTT solution (5 mg/mL, prepared in Millipore water) was added to each well (final concentration 0.5 mg/mL) and cells were incubated again for another hour. Subsequently, the medium was removed, and cells were lyzed by adding 100 µL of DMSO per well. In order to dissolve the produced formazan dye crystals, plates were incubated for 2 min on a rotary shaker (150 rpm). Afterward, the UV absorbance at 570 nm was measured by using SoftMax® Pro5.1 Microplate Data Acquisition & Analysis Software (Molecular Devices, Sunnyvale, CA, USA). The UV absorbance at 690 nm was measured directly afterward to eliminate the background absorbance of residual medium and cell components. The values of the measured UV absorbance at 690 nm were subtracted from the values obtained by the measurement of UV absorbance at 570 nm. Three to four independent experiments were performed, each in triplicate.
For orientation: Tetrazolium dyes change colour on reduction, which living cells bring about.

The test system of data set [2] is C48/80-induced systemic anaphylaxis. As to the kind of experiment: Systemic anaphylactic reaction, plasma CCL2. In kind it is in vivo, mouse. To be noted: 50 mg/kg b.w., i.p.; C48/80 2 mg/kg i.p.; 4 h; listed as PSB-172656. The method, then:
PSB-172656 was further investigated in a mouse model of skin inflammation,[54] determining its effects on C48/80-induced hind paw edema. […] These findings indicate a strong anti-inflammatory effect of the MRGPRX2/B2 antagonist in this mouse model.
30 min after intraperitoneal administration of PSB-172656 at a dose of 50 mg/kg b.w. or vehicle (2% DMSO), an anaphylactic reaction was induced by the intraperitoneal injection of C48/80 at a dose of 2 mg/kg b.w. (in 0.9% NaCl). The non-lethal dose of this compound was assumed based on the literature.[70],[71] The mice were then left in their cages for 4 h. Then, heparin (2500 U/mouse) and sodium thiopental at a dose of 70 mg/kg b.w. were administered intraperitoneally, and blood was collected after decapitation. The plasma concentration of CCL-2 and IL-8 was determined using an ELISA kit (catalog number: E1707Mo, E1481Mo, BT LAB, China).

Another data set deals with T1, MRGPRX2 (Homo sapiens, UniProt Q96LB1).
T1 sequence (Q96LB1 1-330): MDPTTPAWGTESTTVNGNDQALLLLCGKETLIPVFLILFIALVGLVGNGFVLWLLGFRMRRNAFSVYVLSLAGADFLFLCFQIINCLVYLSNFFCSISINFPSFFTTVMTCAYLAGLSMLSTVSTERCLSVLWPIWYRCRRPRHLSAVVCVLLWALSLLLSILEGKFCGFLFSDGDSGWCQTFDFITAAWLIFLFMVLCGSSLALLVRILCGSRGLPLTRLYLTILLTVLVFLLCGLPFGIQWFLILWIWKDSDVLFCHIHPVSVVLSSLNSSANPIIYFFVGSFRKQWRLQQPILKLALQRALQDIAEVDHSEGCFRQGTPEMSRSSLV
The data set can be described thus: TRUPATH Gαi1 dissociation assay, LN229 cells expressing MRGPRX2. The arrangement: expressed in transfected cells; host or cells: LN229 human glioblastoma cells; plasmid pLXSN-MRGPRX2 (Addgene #213960). In kind it is cell-based. To be noted: 100 nM, preincubation. The method, then:
Fig. 3 Biological characterization of PSB-172656. a Selectivity of PSB-172656 (100 nM) for MRGPRX2 over MRGPRX1, MRGPRX3, and MRGPRX4 measured in β-arrestin assays utilizing β-arrestin-CHO cells with recombinant expression of the respective receptor. MRGPRX1 was activated by BAM-22P (8.5 µM),[19] MRGPRX2 was activated by CST-14 (1 µM), MRGPRX3 was activated by PSB-20294 (10 µM), MRGPRX4 was activated by PSB-18061 (2.6 µM).[44] Data represent mean values ± SEM of 3-4 biological replicates, performed in duplicates. […] Data are means ± SEM of 3 biological replicates, in duplicates. Statistical significance was determined by one-way ANOVA (Tukey’s multiple comparison) test (ns P > 0.05). […] Data are means ± SEM of 3 biological replicates, performed in duplicates. e Shift assay to determine inhibition type of PSB-172656 versus CST-14. […] Extrapolated data were not used for analysis but only shown for a comprehensive view. f Schild plot for the effect of PSB-172656 on the concentration-response curves for CST-14. […]
To further investigate PSB-172656 signaling, direct activation of the relevant G protein subunits, Gαq and Gαi1,[32] was studied. This was assessed using G protein dissociation assays and LN229 cells stably overexpressing MRGPRX2 while transiently expressing the investigated G protein (Fig. 3c, d).[47]

Data on one compound can be found in PMC12010006, “Subnanomolar MAS-related G protein-coupled receptor-X2/B2 antagonists with efficacy in human mast cells and disease models” (Signal Transduction and Targeted Therapy, 2025).

SMILES strings stand for the structures. Entries after “also recorded” stand apart in the source; their conditions may differ.

`CCc1c(C(C)C)[nH]c2nc3cc(F)c(F)cc3n2c1=O` [Compound 24, 3-ethyl-7,8-difluoro-2-isopropylbenzo[4,5]imidazo [1,2-a] pyrimidin-4(1H)-one]: in data set [1], the half-maximal cytotoxic concentration (CC50) (usually the concentration that lowers cell viability or growth by half) at 72 h is more than 10 µM. Also, the cytotoxicity at 72 h, 10000 nM in data set [1] (up to 10,000 nM, read-out: Cytotoxicity % effect) was 41%. Besides, the “effect on plasma CCL2 levels” value in data set [2] is “significantly decreased levels of CCL2; also recorded: prevented the dramatic increase in CCL2 levels”. For the same compound, the “inhibition of CST-14-induced Gαi1 dissociation” value on MRGPRX2 is given as “completely inhibited”.
